Key:
[1] = system: male Wistar rats with hemorrhagic stroke; assay: Hemorrhagic stroke (intracerebral hemorrhage) model in rats; assay type: in vivo, rat
Procedure: In the study, male Wistar rats (180-200 g) were used. […] Drug administration was started 1 hour after the pathology simulation and then daily, not earlier than 1 hour before the behavioral tests.
This method involves the double introduction of autologous blood into the specified structure of the brain of animals. The hemorrhagic stroke simulated in this way in rats in localization corresponds to intracerebral hemorrhages that occur in humans when the lenticularity arteries rupture. The total volume of hematoma in animals corresponds to approximately 40-50 ml in terms of human body weight.

[2] = system: children with hyperactivity; assay: ADHD/hyperkinetic disorder in children vs. Piracetam (SNAP-IV, TOVA, fine motor); assay type: in vivo, human
Text: Materials and methods of examination. The study included 57 children aged 6 to 9 years (40 boys and 17 girls) who attended day care centers and elementary schools of secondary schools.
• 1. The presence of clinical signs of hyperactivity that meet the criteria of ICD-10 (F 90); 2. Age-6-9 years; • 3. Intellectual indicators are not lower than the average on the Wechsler scale (more than 90 points).
Children with behavioral disorders due to other mental disorders were excluded from the study. For 2 months, the main group of children (n=30) with clinical signs of GH received monotherapy for the claimed medicament in 2 tablet 3 times a day. Children from the control group, similar to the main group by clinical signs, sex and age (n=27), were administered Piracetam in standard age doses for the same period.
The assessment of the severity of GH according to the criteria of attention disorder, hyperactivity and impulsivity in the examined children was carried out using the SNAP-IV scale (Swanson J., 1992). The psychophysiological test TOVA (The Test of Variables of Attention), allowed to assess the degree of attention disorders (omissions of significant stimuli) and impulsivity (false presses of a button), information processing speed (reaction time) in relation to standard indicators (Greenberg F M, Waldman I D, 1993). The child's fine motor skills were evaluated using tests from the battery of A. R. Luria (1973), selected by testing on these age groups with the development of criteria for scoring points Zh. M. Glozman, et al. (2006).
The results of the study. At the first stage of the study, using the SNAP-IV scale (Swanson J., 1992) in children of the main and control groups, an initial assessment of the severity of GH was carried out separately for each of the criteria (attention disorder, hyperactivity and impulsivity). Repeated similar assessment was carried out after a two-month course of therapy with the declared Drug in the main group and Piracetam therapy in the control group. The obtained indicators were compared with statistical processing (Table 28).
The computer-aided testing of TOVA (“Test of Variables of Attention”) was represented by three groups of tests, which allow judging the degree of attention disorder (missing significant stimuli), impulsivity (false pressing a button), information processing speed (reaction time). Baseline indicators of children with GH before treatment were compared with those of children of the main group (treatment with the claimed Drug) and indicators of children of the control group (Piracetam therapy) after a two-month course of treatment.

Compound	decrease of the area of the hemorrhagic lesion ([1]; 7th day compared with the 3rd day) [%]	total time spent in the dark compartment, passive avoidance reaction, M (QI; Q3) ([1]; 7th day of the study)	difference in motor preference indices ([1]; compared to negative test (Preparation 4)) [%]	children with increase in disinhibition, excitability ([2]; 2 months) [%]	children with sleep disturbance ([2]; 2 months) [%]	number of children with increase in disinhibition, excitability ([2]; 2 months, n = 27)	number of children with sleep disturbance ([2]; 2 months, n = 27)	TOVA false alarm ([2]; First half of the test, after treatment, before 15.3 ± 2.2) [%]	TOVA Omissions of significant incentives ([2]; First half of the test, after treatment, before 19.1 ± 2.4) [%]	TOVA response time ([2]; First half of the test, after treatment, before 795 ± 103) [ms]	TOVA false alarm ([2]; The second half of the test, after treatment, before 29.2 ± 3.3) [%]	TOVA Omissions of significant incentives ([2]; The second half of the test, after treatment, before 29.5 ± 3.3) [%]	TOVA response time ([2]; The second half of the test, after treatment, before 741 ± 126) [ms]	Total mark of fine motor quality ([2]; after treatment, before 2.24 ± 0.21)	SNAP-IV impulsivity ([2]; after two-month treatment, before 2.40 ± 0.28)	SNAP-IV hyperactivity ([2]; after two-month treatment, before 2.64 ± 0.29)	SNAP-IV disorder of attention ([2]; after two-month treatment, before 2.76 ± 0.31)
COCCOC(=O)C1=C(C)NC(C)=C(C(=O)OC(C)C)C1c1cccc([N+](=O)[O-])c1 (centres unmarked) [Nimodipine, nimodipine]	16.7	171.00 (163.00; 175.00) s	24.22														
NC(=O)CN1CCCC1=O [Piracetam]				11.1	26	3	7	12.6 ± 3.1	13.5 ± 1.4	745 ± 87	20.5 ± 2.9	16.9 ± 2.9	665 ± 77	1.62 ± 0.16	2.36 ± 0.20	2.46 ± 0.11	2.52 ± 0.13

Source: US20250345433A1, “Drug For Treating Disorders Of An Organ Or Tissue Function And Diseases Accompanied By Such Disorders, And The Method For Obtaining It” (priority 2018, published 2025)
